According to patent publication US7772383B2, “Chemical PCR: Compositions for enhancing polynucleotide amplification reactions” (The Trustees of Princeton University, priority 2002, dated 2010):

How the values were obtained:
[1] = tested on: human myeloid leukocyte c-jun cDNA; assay: PCR amplification of c-jun with lower denaturation/extension temperatures; assay type: biochemical; settings: for Potency: annealing 50° C.
Protocol: (§1) Amplification reactions were carried out under the following general conditions. Those skilled in the art will appreciate, however, that to the extent that the conditions (set forth in this application) required for specific experiments described in this example were inconsistent with the following general conditions, limited exceptions to the following general conditions were made The general conditions were as follows: 10 Mm Tris-HCl (Ph 8.8), 50 Mm KCl, 1.5 Mm MgCl2, 0.01% (w/v) gelatin, 0.2 Um primers, 0.06 ng/ul template, 0.2 Mm each Dntp, 0.04 U/ul Taq polymerase. The templates used were bovine brain N-WASP cDNA (1518 bp), a 996 by segment of human myeloid leukocyte c-jun cDNA, a 511 by segment of human prostate-specific membrane antigen (PSM) cDNA, and bovine brain glycolipid transfer protein (GTP) cDNA (660 bp). cDNA synthesis was carried out using the FIRST-STRAND® RT-PCR kit from Stratagene on the respective mRNAs purchased from Clontech. All amplification reactions for gene were carried out using a single master batch of cDNA. Taq polymerase and dNTPs were obtained from Stratagene. Primers were obtained from Genosys. Primer melting temperatures (Tms) were calculated using the Genosys oligo calculator program. The sequences of the primers were as follows.
(§2) Polymerase chain reactions for the N-WASP gene were conducted on a ROBOCYCLER® Gradient 40 thermal cycler from Stratagene using 100 ul solutions in 600 ul thin-walled tubes. For expediency, amplification of c-jun, PSM and GTP was carried out in a ROBOCYCLER® Gradient 96 thermal cycler from Stratagene using 50 ul solutions in 200 ul thin-walled tubes. Prior to Taq polymerase addition, a hotstart protocol was carried out that consisted of an initial cycle of 95° C. for 5 minutes (11) to ensure complete first-strand separation, followed by a cycle of 54° C. for 5 minutes. Amplifications were run for 30 cycles. Denaturation was done for 1 minute at the minimum temperatures that yielded discernable amplification: 92° C. for N-WASP and 95° C. for c-jun, PSM and GTP. Extension was done at 72° C. for periods depending on target length: 2 minutes for N-WASP, 1.5 minutes for c-jun and GTP, and 1 minute for PSM. Annealings were carried out either at fixed concentrations of additives using temperature gradients of 38-56° C. for N-WASP and 44-58° C. for the other targets, or at varying concentrations of additives using fixed temperatures of 41° C. for N-WASP, 50° C. for c-jun and PSM, and 54° C. for GTP.
Amplification products were analyzed by agarose gel electrophoresis on 0.8% agarose gels in which 20 ul reaction products were loaded with 4 ul loading buffer. […] Densitometric quantitation of amplification products was carried out using IMAGE SCANNER® and IMAGE MASTER® software from Amersham Pharmacia. […]

[2] = tested on: human prostate-specific membrane antigen (PSM) cDNA; assay: Pilot low temperature PCR of PSM with 1,5-pentanediol; assay type: biochemical; settings: for PSM Specificity: densitometric volume of target band as percent of total volume; for PSM Potency: normalized: 1,3-butanediol (95/72° C.) = 1
Protocol: as §1, §2
Amplification products were analyzed by agarose gel electrophoresis on 0.8% agarose gels in which 20 ul reaction products were loaded with 4 ul loading buffer. Gels were stained with ethidium bromide, visualized on a UV transilluminator (Fisher), and documented by photography. Densitometric quantitation of amplification products was carried out using IMAGE SCANNER® and IMAGE MASTER® software from Amersham Pharmacia. Background correction was done using the software's rolling disc method. […] GTP was used as the target because it has the lowest GC content of the three templates used. PCR reactions were carried out in the presence of 1.0 and 1.5M 1,5-pentanediol under the conditions of 85° C. denaturing and 53° C. extension, using a 50° C. annealing temperature. In addition, 1.5M and 2.0M 1,5-pentandediol were tested using an 80° C. denaturing temperature, with identical annealing and extension temperature. Finally, 2.0, 2.5, and 3.0M 1,5-pentanediol were tested in GTP amplification employing a 75° C. denaturation temperature.
PSM was also tested with 1.0 and 1.5M 1,5-pentanediol using a 85° C. denaturing/50° C. annealing/53° C. extension. The denaturation temperature was then lowered to 80° C., and 2.5M 1,5-pentanediol tested. Amplification of PSM using a 75° C. denaturing temperature was not attempted.

[3] = 80/50/53° C., 2.5 M 1,5-pentanediol
[4] = 85/50/53° C., 1.5 M 1,5-pentanediol

Row | SMILES | Potency ([1]; 92/62° C. denaturation/extension, normalized: 1,5-pentanediol (95/72° C.) = 1) | Potency ([1]; 92/62° C. denaturation/extension, normalized: 1,5-pentanediol (95/72° C.) = 1, listed as 1,2-butanediol) | Effective ([1]; 92/62° C., concentration interval over which target band minus control is at least 50% of maximum volume) | Potency ([1]; 92/72° C. denaturation/extension, normalized: 1,5-pentanediol (95/72° C.) = 1) | PSM Specificity [2, 3] [%] | PSM Potency [2, 3] | PSM Potency ([2]; 80/50/53° C., 2.5 M 1,5-pentanediol, listed as 1,5-pentanediol) | PSM Potency ([2]; 85/50/53° C., 1.0 M 1,5-pentanediol) | PSM Potency ([2]; 85/50/53° C., 1.0 M 1,5-pentanediol, listed as 1,5-pentanediol) | PSM Specificity [2, 4] [%] | PSM Potency [2, 4] | PSM Potency ([2]; 85/50/53° C., 1.5 M 1,5-pentanediol, listed as 1,5-pentanediol)
1 | CCC(O)CO (stereo not drawn) [1,2-Butanediol] | 0.91 | High product yield | 0.72-1.02 | 0.00 | – | – | – | – | – | – | – | –
2 | OCCCCCO [1,5-Pentanediol] | – | – | – | – | 92 | 1.40 | Substantial amplification | 0.00 | did not amplify the target sequence | 86 | 2.08 | successful
